Source: publication PMC9321663, “The DevTox Germ Layer Reporter Platform: An Assay Adaptation of the Human Pluripotent Stem Cell Test” (Toxics, 2022)
Where two headings read alike, the source gives them in different places.

Key:
[1] = test system: SOX17 (endoderm marker) in RUES2-GLR cells; assay: DevTox GLR-Endo assay: decrease in percent SOX17-positive cells (AEID 3094, Sox17_dn); details: for Hit Call: Table S2, SOX17-positive cells, cutoff 3*bmad; for DevTox ACC: Table S2, percent SOX17-positive cells; for HIT−CALL: tcpl plot AEID3094, COFF 20.3; for hit call designation (in words): DevTox GLR-Endo prediction against developmental toxicant classification
Method in brief: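 Readouts are loss of SOX17-positive fraction and reduced cell number in endoderm-differentiating RUES2-GLR cells after 48 h of chemical exposure. Controls: undifferentiated and differentiated cells, 0.2% DMSO, and 1 µM SB431542; at least four biological replicates.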

[2] = DevTox GLR-Endo assay: decrease in total cell count, cytotoxicity (AEID 3098, CellCount_dn); details: human
RUES2-GLR cells = assay: as above; details: for Emax: Homo sapiens, read-out: Cell Count % Max Inhibition
[3] = test system: SOX17 (endoderm marker) in RUES2-GLR cells; assay: DevTox GLR-Endo assay: increase in percent SOX17-positive cells (AEID 3093, Sox17_up); format: cell-based, human; details: for Emax: Homo sapiens; for HIT−CALL: tcpl plot AEID3093, COFF 20.3
Description: (§1) The total test chemical incubation period was 48 h.
(§2) (Supplementary Materials).

[4] = test system: BRA (mesoderm marker) in RUES2-GLR cells; assay: DevTox GLR-Endo assay: increase in percent BRA-positive cells (AEID 3096, Bra_up); format: cell-based, human; details: for HIT−CALL: tcpl plot AEID3096, COFF 0.774; for MAX_MEAN: tcpl plot AEID3096, maximum mean response; for MAX_MED: tcpl plot AEID3096, maximum median response
Description: as §1, §2

[5] = test system: SOX17 in H9 human ESC line; details: SOX17 half-maximal inhibition concentration; read-out: hPST IC50; cited from earlier work
H9 human ESC line = details: cited from earlier work
[6] = cited from earlier work; for Development Toxicant Classification: Table S2; for Classification: developmental toxicant classification (Teratogen / Non-Teratogen) of reference and training chemicals, ref DOI per chemical: 10.1093/toxsci/kft239, 10.1093/toxsci/kfaa014, 10.1177/026119290203000204, 10.1038/s41598-020-59542-x; for DT Class.: developmental toxicant classification; for Developmental Toxicant Classification: reference chemicals
[7] = test system: SOX2 (ectoderm and pluripotency marker) in RUES2-GLR cells; assay: DevTox GLR-Endo assay: increase in percent SOX2-positive cells (AEID 3095, Sox2_up); details: for MAX_MEAN: tcpl plot AEID3095, maximum mean response; for MAX_MED: tcpl plot AEID3095, maximum median response;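 as to all read-outs here: cells exposed to test chemicals for 48 h in total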
Description: RUES2-GLR cells were seeded 24 h prior to differentiation initiation into vitronectin-coated 384-well CellCarrier Ultra plates (10.6 mm^2/well) (Perkin Elmer, Waltham, MA, USA). Vitronectin (0.5 µg/cm^2)-coated plates were prepared and stored at 4 °C, wrapped in parafilm, for less than seven days and incubated at room temperature for one hour prior to cell seeding. […] Cells were dispensed into 20 µL coating solution using a Certus FLEX Micro Dispenser (Fritz Gyger, Gwatt, Switzerland) with a 0.45 µm valve to a final volume of 100 µL and density of 2.8 × 10^3 cells per well.
Following a 24 h post-seeding incubation period (Time = 0 h) (Figure 3A), directed endoderm differentiation was initiated with the PSC Definitive Endoderm Induction kit (Gibco, Waltham, MA, USA). […] A target dilution series (0.002–200 µM) was generated by dispensing variable nanoliter volumes of test chemical and backfilling with a complementary volume of DMSO using Echo Cherry Pick software (v.1.6.2). Wells were backfilled with 50 µL of induction medium using a Certus FLEX Micro Dispenser with 0.45 µm valves. Test compound treatment plates were mixed on a Multi-Microplate Genie mixer at 700 rpm for 10 min and subsequently incubated for two hours in a humidified atmosphere at 37 °C with 5% CO2. Each chemical treatment (0 h–Medium A; 24 h–Medium B) were prepared the day of treatment. At 0 h, cell culture medium was aspirated from the assay plate at a rate of 1 µL/s and 40 µL of Medium A ± test chemical applied using a CyBio FeliX automated liquid handler (Analytik Jena, Jena, Germany). At 24 h, conditioned cell culture medium was aspirated and 40 µL of Medium B ± test chemical was applied. At 48 h, cells were prepared for high-content image acquisition by fixation and nuclear staining. The total test chemical incubation period was 48 h. For fixation, a 4% paraformaldehyde (PFA) solution was achieved by adding 40 µL of 8% PFA directly to cell culture medium using a CyBio FeliX liquid handler. […] Following an additional 30 min incubation period at room temperature, staining solution was aspirated, 50 µL of DPBS was added, and plate sealed with MicroAmp Optical Adhesive Film (Applied Biosystems, Waltham, MA, USA).
Images were acquired within 12 h post-fixation using an Opera Phenix High-Content Screening System (Perkin Elmer, Waltham, MA, USA). […] Cell identification and mean biomarker fluorescent intensities were calculated using Harmony image analysis software (Perkin Elmer, Waltham, MA, USA). Cell nuclei were identified using the object classifying algorithm C of the software with border objects excluded using the “Remove Border Objects” feature. Mean cell biomarker intensity statistics were gathered from each object and exported for further analysis using a custom script in Python version 3.7.4 [61] […] For each plate, pluripotent-negative control wells were used to establish baseline intensity values and a cutoff threshold for determining SOX17 and BRA biomarker-positive cells. Endoderm differentiated positive control wells were used to establish baseline intensity values and a cutoff threshold for SOX2-positive cells. Cells with a mean intensity five times the baseline median absolute deviation (5*bmad) above the median cell intensity for plate-based control population technical replicates were considered positive. Well-based cell counts, reflected by the sum of total counted objects from all fields, were used to calculate the percent responders for each respective biomarker and evaluate cytotoxicity. Well-level results were exported for data modeling in the ToxCast Pipeline.
The ToxCast Pipeline R package (tcpl v.2.0.2) was used to normalize, fit, and qualify concentration-response screening data [63].

[8] = Homo sapiens, 48 h, read-out: DevTox-GLR Endo AC50 (µM), SOX17 half-maximal activity concentration, 48 h exposure
[9] = Homo sapiens, read-out: DevTox % Max Inhibition
[10] = Homo sapiens, read-out: MAX_MEAN
[11] = Homo sapiens, read-out: MAX_MED
[12] = RUES2-GLR cells under directed endoderm differentiation
[13] = tcpl plot AEID3093, maximum mean response, read-out: MAX_MEAN
[14] = tcpl plot AEID3093, maximum median response, read-out: MAX_MED
[15] = cytotoxicity half-maximal concentration
[16] = chemicals common with quickPredict
[17] = Homo sapiens, read-out: ga (winning model), tcpl plot AEID3094, gain parameter of winning curve fit (log concentration, µM axis), hit calls only (converted)
[18] = Homo sapiens, read-out: tp (winning model)
[19] = read-out: DevTox-GLR Endo AC50, SOX17 half-maximal activity concentration, 48 h exposure

Row | SMILES | Cell Count ACC (RUES2-GLR cells; human, 48 h) | AC50 [1, 8] | Emax [1, 9] | Emax [1, 10] | Emax [1, 11] | Hit Call [1] | DevTox ACC ([1]; 48 h exposure) | HIT−CALL [1] | Emax (RUES2-GLR cells) | Emax [3, 13] | Emax [3, 14] | HIT−CALL [3] | HIT−CALL [4] | MAX_MEAN [4] | MAX_MED [4] | IC50 [5] | hPST TC50 (H9 human ESC line; [15]) | hPST TC50 (H9 human ESC line; hPST cytotoxicity) | MAX_MEAN [7] | MAX_MED [7] | also measured
1 | CC(=O)Oc1ccccc1C(=O)O [Aspirin] | >200 µM | > 200 µM | 12.4% | 13.1% | 12.4% | Negative | >200 µM | 0 | 2.85% | -3.36% | -3.07% | 0 | 1 | 1.04 Percent Activity | 1.03 Percent Activity | > 200 µM | >200 µM | > 200 µM | 0.503 Percent Activity | 0.512 Percent Activity | CC50 at 48 h [2, 12]: > 200 µM; Development Toxicant Classification [6]: Negative; Classification [6]: Non-Teratogen; DT Class. ([6]; chemicals common with hPST): Neg; DT Class. [6, 16]: Neg; Developmental Toxicant Classification [6]: Negative
2 | Oc1cc(O)c2c(c1)O[C@H](c1ccc(O)c(O)c1)[C@@H](O)C2 [Cianidanol] | 180.189 µM | 93 µM | 39.8% | 39.3% | 39.8% | Positive | 93.5186 µM | 1 | 29.6% | 6.18% | 7.45% | 0 | 0 | 1.32 Percent Activity | 1.37 Percent Activity | 97 µM | 200 µM | 200 µM | 0.447 Percent Activity | 0.456 Percent Activity | SOX17 ACC relative to cytotoxic concentration (in words) [1]: below cytotoxic concentrations; hit call designation (in words) [1]: false positive; AC50 [1, 17]: 93.3 µM; Emax [1, 18]: 39.4%; AC50 [1, 19]: 92.9 µM; CC50 at 48 h [2, 12]: 194 µM; Development Toxicant Classification [6]: Negative; DT Class. ([6]; chemicals common with hPST): Neg
3 | O=C(c1ccc(F)cc1)C1CCN(CCn2c(=O)[nH]c3ccccc3c2=O)CC1 [Ketanserin] | 33.5346 µM | 36.6 µM | 33.3% | 36.9% | 33.3% | Positive | 39.2719 µM | 1 | 68.7% | 5.18% | 5.62% | 0 | 0 | 1.82 Percent Activity | 2.05 Percent Activity | > 200 µM | >200 µM | > 200 µM | 1.16 Percent Activity | 1.15 Percent Activity | hit call designation (in words) [1]: false positive; AC50 [1, 17]: 36.3 µM; Emax [1, 18]: 31.8%; CC50 at 48 h [2]: 57.5 µM; Development Toxicant Classification [6]: Negative; Classification [6]: Non-Teratogen; DT Class. ([6]; chemicals common with hPST): Neg
4 | C[C@](N)(Cc1ccc(O)c(O)c1)C(=O)O [Methyldopa] | >200 µM | 113 µM | 23.5% | 19.9% | 23.5% | Positive | 217.84 µM | 1 | 10.2% | 13.8% | 12.9% | 0 | 0 | 0.823 Percent Activity | 0.851 Percent Activity | 272 µM | 462 µM | 462 µM | 4.03 Percent Activity | 0.534 Percent Activity | hit call designation (in words) [1]: false positive; AC50 [1, 17]: 112 µM; Emax [1, 18]: 30.9%; AC50 [1, 19]: 113 µM; CC50 at 48 h [2, 12]: > 200 µM; Development Toxicant Classification [6]: Negative; Classification [6]: Non-Teratogen; DT Class. ([6]; chemicals common with hPST): Neg
5 | Cc1nc2sccn2c(=O)c1CCN1CCC(=C(c2ccc(F)cc2)c2ccc(F)cc2)CC1 [Ritanserin] |  | 9.98 µM | 102% | 102% | 102% | Positive | 8.389 µM | 1 | 94.7% | -0.644% | -1.38% | 0 | 1 | 2.65 Percent Activity | 3.04 Percent Activity | 7.3 µM | 27 µM | 27 µM | 2.33 Percent Activity | 1.82 Percent Activity | AC50 [1, 17]: 9.98 µM; Emax [1, 18]: 102%; CC50 at 48 h [2, 12]: 9.47 µM; Cell Count ACC (RUES2-GLR cells; Table S2, 48 h exposure): 6.426 µM; Development Toxicant Classification [6]: Positive; Classification [6]: Teratogen; DT Class. ([6]; chemicals common with hPST): Pos; AC50 ([7]; Homo sapiens, read-out: ga (winning model)): 158 µM; Emax [7, 18]: 4.15%

The next lines start with results.

Row | Cell Count ACC (RUES2-GLR cells; human, 48 h) | SMILES | AC50 [1, 8] | Emax [1, 9] | Emax [1, 10] | Emax [1, 11] | Hit Call [1] | DevTox ACC ([1]; 48 h exposure) | HIT−CALL [1] | Emax (RUES2-GLR cells) | Emax [3, 13] | Emax [3, 14] | HIT−CALL [3] | HIT−CALL [4] | MAX_MEAN [4] | MAX_MED [4] | IC50 [5] | hPST TC50 (H9 human ESC line; [15]) | hPST TC50 (H9 human ESC line; hPST cytotoxicity) | MAX_MEAN [7] | MAX_MED [7] | also measured
6 | >200 µM | O=C(O)c1cccnc1 [Niacin, Nicotinic acid] | > 200 µM | 6.06% | 5.21% | 6.06% | Negative |  | 0 | 10.8% | 11.3% | 11.4% | 0 | 0 | 0.818 Percent Activity | 0.865 Percent Activity | > 200 µM | >200 µM | > 200 µM | 0.611 Percent Activity | 0.561 Percent Activity | CC50 at 48 h [2]: > 200 µM; Development Toxicant Classification [6]: Negative; Classification [6]: Non-Teratogen; DT Class. ([6]; chemicals common with hPST): Neg
7 | >200 µM | CC1(C)S[C@@H]2[C@H](NC(=O)Cc3ccccc3)C(=O)N2[C@H]1C(=O)O [Penicillin G] | > 200 µM | 10.3% | 12.2% | 10.3% | Negative | >200 µM | 0 | 13.3% | 13.2% | 12.4% | 0 | 0 | 0.857 Percent Activity | 0.92 Percent Activity | > 400 µM | >400 µM | > 400 µM | 2.17 Percent Activity | 0.88 Percent Activity | CC50 at 48 h [2]: > 200 µM
8 | >200 µM | O=C1NS(=O)(=O)c2ccccc21 [Saccharin] | > 200 µM | 13% | 11% | 13% | Negative | >200 µM | 0 | 17.9% | 10.2% | 10.9% | 0 | 0 | 1.1 Percent Activity | 1.04 Percent Activity | > 400 µM | >400 µM | > 400 µM | 0.945 Percent Activity | 0.563 Percent Activity | CC50 at 48 h [2]: > 200 µM; Development Toxicant Classification [6]: Negative; Classification [6]: Non-Teratogen; DT Class. ([6]; chemicals common with hPST): Neg; DT Class. [6, 16]: Neg; Developmental Toxicant Classification [6]: Negative
